Data reported in PMC10846240, “Pharmacokinetic/pharmacodynamic integration of amphenmulin: a novel pleuromutilin derivative against Mycoplasma gallisepticum” (Microbiology Spectrum, 2023).
In brackets after ≈: the same amount, converted by molar mass.

Columns and labels:
M. gallisepticum = assay: PK/PD integration, inhibitory Sigmoid Emax model; assay type: cell-based, Mycoplasma gallisepticum; details: for Emax: inhibitory Emax model
Procedure: Phoenix software was used to analyze the in vitro concentration–time data of amphenmulin and calculate the AUC and peak concentration (Cmax), which were combined with MIC to obtain PK/PD parameters. Concurrently, the anti-mycoplasma effect was derived from the dynamic time–kill curve, which was analyzed with the PK/PD index using an inhibitory Sigmoid Emax model as follows:
E=E0−(E0−Emax)×CeN/EC50N+CeN
E, anti-mycoplasma effect, the change in M. gallisepticum counts during 24 h of cultivation; E0, M. gallisepticum change in control (without drug); Emax, maximal effect produced by amphenmulin against M. gallisepticum during 24 h; Ce, PK/PD parameters (AUC/MIC or Cmax/MIC); EC50, the Ce value needed to produce 50% of maximal effect; N, Hill coefficient, the slope of the fitted curve.

[1] = tested on: M. gallisepticum S6 strain; assay: Susceptibility assay, broth microdilution (MIC, MBC); assay type: cell-based, Mycoplasma gallisepticum
Procedure: The minimum inhibitory concentration (MIC) of amphenmulin against M. gallisepticum S6 strain was determined with reference to the protocols previously reported ([16], [17]). The broth microdilution method was performed using 96-well plates to achieve a final titer of approximately 10^7 colony-forming units (CFU)/mL of M. gallisepticum in each well. The final concentrations tested of amphenmulin ranged from 0.488 × 10^−3 to 0.125 µg/mL. Concurrently, a growth control (without drug), an end-point control (blank medium), and a sterile control (sterile broth) were also implemented. […] For the agar dilution method, M. gallisepticum was inoculated and cultured on agar plates containing a twofold dilution series of amphenmulin concentrations, and the MIC was the lowest drug concentration that inhibited growth. Additionally, following the procedure of broth microdilution, the initial culture before incubation and the samples from wells where the color remained unchanged after 48 h of incubation were subjected to 10-fold serial dilutions. Each dilution sample (10 µL) was then plated on drug-free agar for colony counting.

Q: What does the source list for `C=C[C@]1(C)C[C@@H](OC(=O)CSc2ccccc2N)[C@]2(C)[C@H](C)CC[C@]3(CCC(=O)[C@H]32)[C@@H](C)[C@@H]1O` [amphenmulin, 22-(2-amino-phenylsulfanyl)-22-deoxypleuromutilin]?
A: AUC24 h/MIC target value (M. gallisepticum; for a decrease of 1 Log10CFU/mL of M. gallisepticum): 904.05 h; Emax (M. gallisepticum; index AUC24 h/MIC): −2.4214 Log10CFU/mL; Emax (M. gallisepticum; index Cmax/MIC): −3.3571 Log10CFU/mL; MIC ([1]; Mycoplasmoides gallisepticum, S6STRAIN, broth microdilution, inoculum 10^7 CFU/mL, strain S6): 3.9 ng/mL (≈ 0.00803 µM); MBC ([1]; Mycoplasmoides gallisepticum, S6STRAIN, inoculum 10^7 CFU/mL, reduction > 3 Log10CFU/mL after 48 h): 15.6 ng/mL (≈ 0.0321 µM); MIC at inoculum levels of 107, 106, and 105 ([1]; early pre-experiments (response to reviewer)): no significant difference
